According to EPA's ToxValDB 9.5:
Converted amounts (≈) assume the structure as drawn. “And” between values parts separate entries of the source, which are not always exact repeats. Equal entries are not always repeated. Blank lines part the entries; values can stand above or below the compound they belong to.

Experiments:
Gallus gallus = settings: for LEL: no effects
Rattus norvegicus = settings: for LD50: acute, mortality
Apis mellifera = settings: acute, mortality
Pontoscolex corethrurus = settings: acute; mortality
[1] = for NOAEL: subchronic
Daphnia magna = settings: acute; mortality
Oncorhynchus mykiss = settings: acute; duration: 96 hours; mortality
Colinus virginianus = settings: acute; oral; mortality
Meleagris sp. = settings: not reported
Sus scrofa = settings: oral; for LEL: subchronic, diet
Homo sapiens = settings: clinical; for LEL: no effects
Canidae = settings: acute; injection; intravenous; Beagle; hematological
[2] = duration: 6 weeks, M/F, Large White x Landrace, clinical chemistry

LEL (Gallus gallus; subchronic, duration: 35 days, M, Chicken): 120 mg/kg-day
Structure (SMILES): CSCCC(N)C(=O)[O-].O=S(=O)([O-])O.[Zn+2] (configuration not stated)

Structure (SMILES): C[C@@H]1O[C@H](O[C@H]2[C@H](O[C@H]3[C@@H](OC[C@H]4O[C@@H](O[C@@H]([C@H](O)[C@@H](O)CO)[C@H](O)CO)[C@H](O)[C@@H](O)[C@@H]4O[C@@H]4O[C@H](CO[C@H]5OC[C@@H](O)[C@H](O)[C@H]5O)[C@@H](O)[C@H](O)[C@H]4O)OC[C@@H](O)[C@@H]3O)O[C@H](CO)[C@H](O)[C@@H]2O)[C@@H](O)[C@H](O)[C@@H]1O
LD50 (Rattus norvegicus; oral): > 5000 mg/kg-day
LD50 (Apis mellifera; oral, unspecified): > 100 µg/piece

Structure (SMILES): CC(=O)OC(C)c1ccccc1 (racemic) [(+/-)-alpha-Methylbenzyl acetate]
LC50 (Pontoscolex corethrurus): 1480 mg/kg

Structure (SMILES): CCOCCC(OCC)OCC [1,1,3-Triethoxypropane]
LOAEL (Rattus norvegicus; subchronic, M, hematological): 69 mg/kg-day
LOAEL ([1]; repeat dose other): 9.5 mg/kg-day

Structure (SMILES): CC12CCC(CC1)C(C)(C)O2 [1,8-Cineol]
NOAEL (Mus musculus; short-term, duration: 28 days, oral, capsule, M/F, other): 562 mg/kg-day

Structure (SMILES): CCCCCCC(C=O)=Cc1ccccc1 [2-(Phenylmethylene)octanal]
NOAEL (Rattus norvegicus; chronic, duration: 14 weeks, oral, diet, M/F, organ weight): 30 mg/kg-day
LC50 ([1]; acute, mortality): 0.2 µg/mL (≈ 0.925 µM)

Structure (SMILES): O=C1CCSC1 [3(2H)-Thiophenone, dihydro-]
LC50 (Pontoscolex corethrurus): 305 mg/kg

Structure (SMILES): CCC(C)c1nccnc1OC (configuration not stated) [3-sec-Butyl-2-methoxypyrazine]
LC50 (Pontoscolex corethrurus): 235 mg/kg
LC50 (Daphnia magna): 14 µg/mL (≈ 84.2 µM)

Structure (SMILES): CC(=O)CCc1ccc(O)cc1 [4-(4-Hydroxyphenyl)butan-2-one]
NOAEL ([1]; duration: 13 weeks): 280 mg/kg-day
LC50 (Pontoscolex corethrurus): 248 mg/kg
LC50 (Daphnia magna): 16.9 µg/mL (≈ 103 µM)

Structure (SMILES): CC(C)=CCC/C(C)=C/CO [(2E)-3,7-Dimethyl-2,6-octadien-1-ol]
LC50 (Oncorhynchus mykiss): 11.6 µg/mL (≈ 75.2 µM)
LD50 (Rattus norvegicus; oral): 3600 mg/kg-day

Structure (SMILES): CC1=CC(=O)CC(C)(C)[C@@]1(O)/C=C/C(C)=C\C(=O)O [(+)-(S)-Abscisic acid]
LD50 (Rattus norvegicus; oral): > 5000 mg/kg-day
NOAEC (Rattus norvegicus; reproduction developmental, no effects): ≥ 1360 mg/kg-day
LD50 (Colinus virginianus): > 2250 mg/kg-day

Structure (SMILES): O=S(=O)([O-])c1ccc(N=Nc2cc(S(=O)(=O)[O-])c3ccccc3c2O)c2ccccc12.[Na+].[Na+] [Azorubine]
NOAEL (Rattus norvegicus; chronic, M/F, body weight): 400 mg/kg-day
NOAEL (Mus musculus; chronic, hematological): 375 mg/kg-day

Structure (SMILES): CC(C)[C@H]1OC(=O)[C@H](Cc2ccccc2)N(C)C(=O)[C@@H](C(C)C)OC(=O)[C@H](Cc2ccccc2)N(C)C(=O)[C@@H](C(C)C)OC(=O)[C@H](Cc2ccccc2)N(C)C1=O [Beauvericin]
NOAEL (Gallus gallus; repeat dose other): 1.22 mg/kg-day and 0.536 mg/kg-day
NOAEL (Meleagris sp.): 136 µg/kg-day

Structure (SMILES): Cc1oc2ccccc2c1C [Benzofuran, 2,3-dimethyl-]
NOAEL (Rattus norvegicus; subchronic, duration: 90 days, oral): 0.6 mg/kg-day
NOAEL ([1]; duration: 90 days): 0.6 mg/kg-day

Structure (SMILES): C[N+](C)(C)CC(=O)O.[Cl-] [Betaine hydrochloride]
LEL (Sus scrofa; [2]): 10000 mg/kg-day

LEL (Sus scrofa; [2]): 10000 mg/kg-day
LEL (Homo sapiens; duration: 3 months, oral): 4000 mg/day
LEL (Homo sapiens; duration: 6 months, oral): 4000 mg/day
Structure (SMILES): C[N+](C)(C)CC(=O)[O-] [Betaine]

LEL (Gallus gallus; subchronic, duration: 35 days, oral, diet, M/F): 0.07 mg/kg-day
LEL (Sus scrofa; duration: 42 days, Not specified, no effects): 0.5 mg/kg-day
Structure (SMILES): C=C1CC[C@H](O)C/C1=C/C=C1\CCC[C@]2(C)[C@@H]([C@H](C)CCCC(C)(C)O)CC[C@@H]12 [Calcifediol]

Structure (SMILES): CN/C(=N\[N+](=O)[O-])NCc1cnc(Cl)s1 [Clothianidin]
LD50 (Apis mellifera; dermal): 0.0275 µg/piece and 0.0258 µg/piece
LD50 (Apis mellifera; duration: 48 hours, dermal): 0.0275 µg/piece
LD50 (Apis mellifera; duration: 48 hours, oral, unspecified): 0.00379 µg/piece
LD50 (Apis mellifera; oral, unspecified): 0.00379 µg/piece

Structure (SMILES): [Cu+2].[O-2] [Cupric oxide]
NOAEL (Homo sapiens; duration: 12 weeks, oral, M, clinical chemistry): 10 mg/day

Structure (SMILES): CC(=O)OC[C@]12CCC(C)=C[C@H]1O[C@@H]1[C@H](O)[C@@H](OC(C)=O)[C@@]2(C)[C@]12CO2 [Diacetoxyscirpenol]
LOAEL (Gallus gallus; subchronic, duration: 35 days, M, Chicken, histopathology: neoplastic): 0.01 mg/kg-day
LOAEL (Canidae): 0.031 mg/kg-day
LOAEL (Sus scrofa; short-term, gavage, Not specified, histopathology: neoplastic): 0.08 mg/kg-day
NOAEL (Homo sapiens; injection, intravenous, hematological): 0.065 mg/kg-day
NOAEL (Homo sapiens; injection, intravenous, other): 0.032 mg/kg-day
